US12358948B2, “Neurotensinergic agonists and methods of using same preventing or treating pain” (priority 2019, dated 2025)
pIC50: −log10 of the molar value. *1 amine or outer side, *2 acyl side, *3 side chain or, on linkers, in order; H or OH if unused. Where a SMILES comes first, the peptide text is derived from it. Bridges are numbered along the chain shown (N, C = ends). [ ]: non-standard residue; d: D form. X2 = O=C([C@H](Cc1cc(F)c(F)cc1F)N[*:1])[*:2]; Ala(cPr) = N[C@@H](CC1CC1)C(=O)O; hCha = N[C@@H](CCC1CCCCC1)C(=O)O; tBuAla = CC(C)(C)C[C@H](N)C(=O)O; dAllylGly = C=CC[C@@H](N)C(=O)O; AllylGly = C=CC[C@H](N)C(=O)O; Cba = N[C@@H](CC1CCC1)C(=O)O; Nle = CCCC[C@H](N)C(=O)O; Orn = NCCC[C@H](N)C(=O)O; Dab = NCC[C@H](N)C(=O)O; Nva = CCC[C@H](N)C(=O)O; Dap = NC[C@H](N)C(=O)O

Columns and labels:
hNTS1 receptor = target: T1, hNTS1 receptor (Homo sapiens, UniProt P30989); assay: Competitive radioligand binding assay on the hNTS1 receptor; details: displacement of 125I-[Tyr3]-NT, membranes of CHO-K1 cells expressing hNTS1; read-out: IC50 NTS1
T1 construct: membranes prepared from them
T1 sequence (P30989 whole entry): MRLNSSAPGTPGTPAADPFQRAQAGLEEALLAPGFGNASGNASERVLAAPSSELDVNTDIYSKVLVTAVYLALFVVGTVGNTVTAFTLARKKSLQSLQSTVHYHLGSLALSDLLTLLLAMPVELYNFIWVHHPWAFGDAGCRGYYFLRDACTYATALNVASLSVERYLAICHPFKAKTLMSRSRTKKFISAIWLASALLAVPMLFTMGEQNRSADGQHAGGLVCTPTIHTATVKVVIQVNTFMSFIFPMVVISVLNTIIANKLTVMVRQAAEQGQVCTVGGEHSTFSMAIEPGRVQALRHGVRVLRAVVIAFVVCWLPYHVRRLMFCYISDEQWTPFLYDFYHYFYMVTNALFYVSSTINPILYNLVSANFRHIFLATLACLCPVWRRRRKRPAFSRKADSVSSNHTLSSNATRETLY
Method: (§1) CHO-K1 (Chinese Hamster Ovary) cells stably expressing hNTS1 and 1321N1 cells stably expressing hNTS2 (ES-690-C and ES-691-C from PerkinElmer, Montréal, Canada) were cultured respectively in Ham's F12 and in DMEM culture media. Culture media were supplemented with 10% FBS, 100 U/mL penicillin, 100 μg/mL streptomycin, 20 mM HEPES, and 0.4 mg/mL G418 at 37° C. in a humidified chamber at 5% CO2.
(§2) The cells expressing hNTS1 were frozen when they reached 80% confluency. They were scrapped off the dish with 10 mM Tris buffer, 1 mM EDTA, pH 7.5 and centrifuged at 15,000 g for 5 min at 4° C. The pellet was then re-suspended in 1 mL binding buffer. The cells expressing hNTS2 were also frozen when they reached 80% confluency. They were scraped off the dish with PBS, 0.5 mM EDTA, pH 7.5 and sonicated for 5 minutes (pulse 30 s/5 s off, amplitude 40%). They were ultracentrifuged at 100 000 g for 60 minutes at 4° C. The pellet was re-suspended in 1 mL freezing buffer (PBS, glycerol, 0.5 mM EDTA), sonicated for 1 minute (pulse 30 s/5 s off, amplitude 50%) and further diluted in binding buffer. Competitive radioligand binding experiments were performed by incubating 15 μg of cell membranes expressing the hNTS1 receptor with […] of ^125I-[Tyr^3]-NT (2200 Ci/mmol) or 50 μg of cell membranes expressing the hNTS2 receptor with […] of ^125I-[Tyr^3]-NT in binding buffer (50 mM Tris-HCl, pH 7.5, 0.2% BSA) in the presence of increasing concentrations of analogues ranging from 10^−11 to 10^−4 M for 60 min at 25° C. After incubation, the binding reaction mixture was transferred in PEI-coated 96-well filter plates (glass fiber filters GF/B, Millipore, Billerica, MA). Reaction was terminated by filtration, and plates were washed three times with 200 μL ice-cold binding buffer. Glass filters were then counted using a γ-counter (2470 Wizard2, PerkinElmer, Mississauga, Ontario, Canada). Non-specific binding was measured in the presence of 10^−5 M unlabeled NT (8-13) and represented less than 5% of total binding. IC50 values were determined from competition curves as the unlabeled ligand concentration inhibiting 50% of ^125I-[Tyr^3]-NT-specific binding.
(§3) Competitive radioligand binding data were plotted using the nonlinear regression One-site-Fit Log(IC50) and represented the mean±SEM of at least three independent experiments in triplicates.

hNTS2 receptor = target: T2, hNTS2 receptor (Homo sapiens, UniProt O95665); assay: Competitive radioligand binding assay on the hNTS2 receptor; details: for IC50: displacement of 125I-[Tyr3]-NT, membranes of 1321N1 cells expressing hNTS2, read-out: IC50 NTS2 (converted); for Selectivity: ratio IC50 for NTS1 : IC50 for NTS2
T2 construct: membranes prepared from them
T2 sequence (O95665 whole entry): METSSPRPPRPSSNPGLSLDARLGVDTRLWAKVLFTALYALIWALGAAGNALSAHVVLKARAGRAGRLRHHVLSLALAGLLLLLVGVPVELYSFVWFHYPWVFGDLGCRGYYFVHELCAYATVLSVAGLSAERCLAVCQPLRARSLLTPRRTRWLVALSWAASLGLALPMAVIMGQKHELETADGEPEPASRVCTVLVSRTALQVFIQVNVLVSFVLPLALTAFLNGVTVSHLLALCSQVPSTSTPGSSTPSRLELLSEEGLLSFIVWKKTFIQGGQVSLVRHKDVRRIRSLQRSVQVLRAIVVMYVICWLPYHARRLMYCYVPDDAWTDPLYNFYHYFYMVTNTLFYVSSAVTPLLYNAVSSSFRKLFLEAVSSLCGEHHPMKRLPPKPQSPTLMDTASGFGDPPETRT
Method: as §1, §2, §3

pIC50 (hNTS1 receptor)	IC50 (hNTS2 receptor) [nM]	Selectivity (hNTS2 receptor)	SMILES
< 4.00	2300	>42	CC(C)C[C@H](NC(=O)[C@H](Cc1ccc(O)cc1)NC(=O)[C@H]1CC=CC[C@@H](N)C(=O)N[C@@H](CCCCN)C(=O)N[C@@H](CCCCN)C(=O)N1)C(=O)O [compound 42, c[G*(All)KKG*(All)]YL] (H-[dAllylGly]KK[dAllylGly]YL-OH; staple 1-4)
< 4.00	94	>1064	CC(C)C[C@H](NC(=O)[C@H](Cc1ccc(O)cc1)NC(=O)[C@@H]1CCCC[C@H](N)C(=O)N[C@@H](CCCCN)C(=O)N[C@@H](CCCCN)C(=O)N1)C(=O)O [compound 47, Dihydro-c[G(All)KKG(All)]YL]
< 4.00	10100	>10	CC(C)C[C@H](NC(=O)[C@@H](CCCCN)NC(=O)[C@@H]1CC=CC[C@H](N)C(=O)N[C@@H](CCCCN)C(=O)N[C@@H](CCCCN)C(=O)N1)C(=O)O [compound 48, c[G(All)KKG(All)]K*L] (H-[AllylGly]KK[AllylGly][dK]L-OH; staple 1-4)
< 4.00	44.4	>2252	CC(C)(C)C[C@H](NC(=O)[C@H](Cc1ccc(O)cc1)NC(=O)[C@@H]1CC=CC[C@H](N)C(=O)N[C@@H](CCCCN)C(=O)N[C@@H](CCCCN)C(=O)N1)C(=O)O [compound 49, c[G(All)KKG(All)]YNpg] (H-[AllylGly]KK[AllylGly]Y[tBuAla]-OH; staple 1-4)
< 4.00	70.3	>1422	CC(C)C[C@H](NC(=O)[C@H](Cc1ccc(O)cc1)NC(=O)[C@@H]1CC=CC[C@H](N)C(=O)N[C@@H](CCCCN)C(=O)N[C@@H](CCCN)C(=O)N1)C(=O)O [compound 51, c[G(All)KOrnG(All)]YL] (H-[AllylGly]K[Orn][AllylGly]YL-OH; staple 1-4)
< 4.00	244	>409.3	CC(C)C[C@H](NC(=O)[C@H](Cc1ccc(O)cc1)NC(=O)[C@@H]1CC=CC[C@H](N)C(=O)N[C@@H](CCCCN)C(=O)N[C@@H](CCN)C(=O)N1)C(=O)O [compound 52, c[G(All)KDabG(All)]YL] (H-[AllylGly]K[Dab][AllylGly]YL-OH; staple 1-4)
< 4.00	204	>490.9	CC(C)C[C@H](NC(=O)[C@H](Cc1ccc(O)cc1)NC(=O)[C@@H]1CC=CC[C@H](N)C(=O)N[C@@H](CCCCN)C(=O)N[C@@H](CN)C(=O)N1)C(=O)O [compound 53, c[G(All)KDapG(All)]YL] (H-[AllylGly]K[Dap][AllylGly]YL-OH; staple 1-4)
< 4.00	321	>311.9	CC(C)C[C@H](NC(=O)[C@H](Cc1ccc(O)cc1)NC(=O)[C@@H]1CC=CC[C@H](N)C(=O)N[C@@H](CCCCN)C(=O)N[C@H](CCCCN)C(=O)N1)C(=O)O [compound 54, c[G(All)KK*G(All)]YL] (H-[AllylGly]K[dK][AllylGly]YL-OH; staple 1-4)
< 4.00	570	>175	CC(C)C[C@H](NC(=O)[C@H](Cc1ccc(O)cc1)NC(=O)[C@@H]1CC=CC[C@H](N)C(=O)N[C@@H](CCCCN)C(=O)N[C@@H](Cc2c[nH]cn2)C(=O)N1)C(=O)O [compound 55, c[G(All)KHG(All)]YL] (H-[AllylGly]KH[AllylGly]YL-OH; staple 1-4)
< 4.00	716	>140	CCCC[C@@H]1NC(=O)[C@H](CCCCN)NC(=O)[C@@H](N)CC=CC[C@@H](C(=O)N[C@@H](Cc2ccc(O)cc2)C(=O)N[C@@H](CC(C)C)C(=O)O)NC1=O [compound 57, c[G(All)KNleG(All)]YL] (H-[AllylGly]K[Nle][AllylGly]YL-OH; staple 1-4)
< 4.00	729	>137	CCC[C@@H]1NC(=O)[C@H](CCCCN)NC(=O)[C@@H](N)CC=CC[C@@H](C(=O)N[C@@H](Cc2ccc(O)cc2)C(=O)N[C@@H](CC(C)C)C(=O)O)NC1=O [compound 58, c[G(All)KNvaG(All)]YL] (H-[AllylGly]K[Nva][AllylGly]YL-OH; staple 1-4)
< 4.00	2130	>47	CC(C)C[C@H](NC(=O)[C@H](Cc1ccc(O)cc1)NC(=O)[C@@H]1CC=CC[C@H](N)C(=O)N[C@@H](CCCCN)C(=O)NCC(=O)N1)C(=O)O [compound 59, c[G(All)KGG(All)]YL] (H-[AllylGly]KG[AllylGly]YL-OH; staple 1-4)
< 4.00	12400	>8.	CC(C)C[C@H](NC(=O)[C@H](Cc1ccc(O)cc1)NC(=O)[C@@H]1CC=CC[C@H](N)C(=O)N[C@@H](CCCCN)C(=O)N[C@@H](CCC(=O)O)C(=O)N1)C(=O)O [compound 61, c[G(All)KEG(All)]YL] (H-[AllylGly]KE[AllylGly]YL-OH; staple 1-4)
< 4.00	166	>602	COc1ccc(C[C@H](NC(=O)[C@H](Cc2ccc(O)cc2)NC(=O)[C@@H]2CC=CC[C@H](N)C(=O)N[C@@H](CCCCN)C(=O)N[C@@H](CCCCN)C(=O)N2)C(=O)O)cc1 [compound 62, c[G(All)KKG(All)]YY(OMe)] (H-[AllylGly]KK[AllylGly]YY(Me)-OH; staple 1-4)
< 4.00	366	>273	NCCCC[C@@H]1NC(=O)[C@H](CCCCN)NC(=O)[C@@H](N)CC=CC[C@@H](C(=O)N[C@@H](Cc2ccc(O)cc2)C(=O)N[C@@H](Cc2cc(F)c(F)cc2F)C(=O)O)NC1=O [compound 63, c[G(All)KKG(All)]YF(2,4,5-trifluoro)] (H-[AllylGly]KK[AllylGly]Y[X2]-OH; staple 1-4)
< 4.00	7.74	>12 920	NCCCC[C@@H]1NC(=O)[C@H](CCCCN)NC(=O)[C@@H](N)CC=CC[C@@H](C(=O)N[C@@H](Cc2ccc(O)cc2)C(=O)N[C@@H](CCC2CCCCC2)C(=O)O)NC1=O [compound 64, c[G(All)KKG(All)]YA(homoChA)] (H-[AllylGly]KK[AllylGly]Y[hCha]-OH; staple 1-4)
< 4.00	312	>321	NCCCC[C@@H]1NC(=O)[C@H](CCCCN)NC(=O)[C@@H](N)CC=CC[C@@H](C(=O)N[C@@H](Cc2ccc(O)cc2)C(=O)N[C@@H](CC2CC2)C(=O)O)NC1=O [compound 65, c[G(All)KKG(All)]YA(cyclopropyl)] (H-[AllylGly]KK[AllylGly]Y[Ala(cPr)]-OH; staple 1-4)
< 4.00	27.2	>3682	NCCCC[C@@H]1NC(=O)[C@H](CCCCN)NC(=O)[C@@H](N)CC=CC[C@@H](C(=O)N[C@@H](Cc2ccc(O)cc2)C(=O)N[C@@H](CC2CCC2)C(=O)O)NC1=O [compound 66, c[G(All)KKG(All)]YA(cyclobutyl)] (H-[AllylGly]KK[AllylGly]Y[Cba]-OH; staple 1-4)

SMILES	pIC50 (hNTS1 receptor)	IC50 (hNTS2 receptor) [nM]	Selectivity (hNTS2 receptor)
CC(C)C[C@H](NC(=O)[C@@H](Cc1c[nH]c2ccccc12)NC(=O)[C@@H]1CC=CC[C@H](N)C(=O)N[C@@H](CCCCN)C(=O)N[C@@H](CCCCN)C(=O)N1)C(=O)O [compound 43, c[G(All)KKG(All)]W*L] (H-[AllylGly]KK[AllylGly][dW]L-OH; staple 1-4)	< 4.00	968	>103.3
